Assay results: patent US20250215029A1 (Recludix Pharma, Inc., priority 2022, published 2025)
Read-outs that look alike come from different tables or passages of the source.

Key:
[1] = molecular target: T1, Recombinant STAT3 protein (STAT3 (G127-I722)) (Homo sapiens, UniProt P40763); test: STAT3 Fluorescence Polarization (FP) Assay; format: binding; conditions: probe 5-FAM-GpYLPQTV-NH2 2 nM, 45-minute incubation
T1 construct: Recombinant STAT3 protein (STAT3 (G127-I722))
Description: STAT3 Fluorescence Polarization (FP) Assay
An FP assay was developed to determine IC50 values for test substances. Recombinant STAT3 protein (STAT3 (G127-I722)) at 25 nM was combined with a fluorescently labeled, phosphotyrosine peptide probe (5-FAM-GpYLPQTV-NH2) at 2 nM in FP buffer (10 mM HEPES pH 7.4, 50 mM NaCl, 1 mM EDTA, 0.05% Tween 20.2 mM DTT). 50 μL of STAT3-probe mixture was added to serial diluted compounds in black, 96-well plates (Greiner BioOne 655076) to a final concentration of 1% DMSO. Reaction components were mixed, and FP was measured after 45-minute incubation at room temperature using a Tecan Spark multimode plate reader. FP signal (mP) was plotted against the log concentration of the test substances and IC50 values were calculated by nonlinear regression analysis using GraphPad Prism software. For STAT3 FP assay, A=≤100 nM; B=>100-1000 nM; C=>1-10 μM; and D=>10 μM.

[2] = molecular target: T2, Recombinant STAT6 protein (STAT6 (W123-T658)) (Homo sapiens, UniProt P42226); test: STAT6 Fluorescence Polarization (FP) Assay; format: binding; conditions: probe 5-FAM-Ap[…]-NH2 2 nM, 45-minute incubation
T2 construct: Recombinant STAT6 protein (STAT6 (W123-T658))
T2 sequence (P42226 123-658): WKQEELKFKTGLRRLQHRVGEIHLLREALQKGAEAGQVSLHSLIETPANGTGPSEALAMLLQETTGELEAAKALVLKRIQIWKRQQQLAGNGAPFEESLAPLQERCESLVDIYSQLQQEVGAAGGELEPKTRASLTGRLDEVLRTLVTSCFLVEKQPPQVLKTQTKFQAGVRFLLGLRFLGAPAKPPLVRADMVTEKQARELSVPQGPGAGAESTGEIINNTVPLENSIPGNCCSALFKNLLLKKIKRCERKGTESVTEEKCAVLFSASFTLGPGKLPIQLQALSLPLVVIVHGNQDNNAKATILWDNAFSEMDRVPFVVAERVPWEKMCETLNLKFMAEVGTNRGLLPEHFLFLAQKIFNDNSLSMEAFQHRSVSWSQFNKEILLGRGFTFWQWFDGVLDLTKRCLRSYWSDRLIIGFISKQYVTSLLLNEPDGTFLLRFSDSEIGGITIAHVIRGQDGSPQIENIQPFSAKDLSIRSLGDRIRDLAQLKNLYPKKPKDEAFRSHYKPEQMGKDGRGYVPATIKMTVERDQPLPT
Description: STAT6 Fluorescence Polarization (FP) Assay
An FP assay was developed to determine IC50 values for test substances. Recombinant STAT6 protein (STAT6 (W123-T658)) at 250 nM was combined with a fluorescently labeled, phosphotyrosine peptide probe (5-FAM-Ap[…]-NH2) at 2 nM in FP buffer (10 mM HEPES pH 7.4, 50 mM NaCl, 1 mM EDTA, 0.05% Tween 20, 2 mM DTT). 50 μL of STAT6-probe mixture was added to serial diluted compounds in black, 96-well plates (Greiner BioOne 655076) to a final concentration of 1% DMSO. Reaction components were mixed, and FP was measured after 45-minute incubation at room temperature using a Tecan Spark multimode plate reader. FP signal (mP) was plotted against the log concentration of the test substances and IC50 values were calculated by nonlinear regression analysis using GraphPad Prism software. For STAT6 FP assay, A=≤300 nM; B=>300-3000 nM; C=>3-30 μM; and D=>30 μM.

[3] = STAT3 25 nM, read-out: STAT3 (FP assay IC50)
[4] = STAT6 250 nM, read-out: STAT6 (FP assay IC50)
[5] = STAT3 (G127-I722) 25 nM, read-out: STAT3 (FP assay IC50 class)
[6] = STAT6 (W123-T658) 250 nM, read-out: STAT6 (FP assay IC50 class)

T1 sequence (P40763 127-722): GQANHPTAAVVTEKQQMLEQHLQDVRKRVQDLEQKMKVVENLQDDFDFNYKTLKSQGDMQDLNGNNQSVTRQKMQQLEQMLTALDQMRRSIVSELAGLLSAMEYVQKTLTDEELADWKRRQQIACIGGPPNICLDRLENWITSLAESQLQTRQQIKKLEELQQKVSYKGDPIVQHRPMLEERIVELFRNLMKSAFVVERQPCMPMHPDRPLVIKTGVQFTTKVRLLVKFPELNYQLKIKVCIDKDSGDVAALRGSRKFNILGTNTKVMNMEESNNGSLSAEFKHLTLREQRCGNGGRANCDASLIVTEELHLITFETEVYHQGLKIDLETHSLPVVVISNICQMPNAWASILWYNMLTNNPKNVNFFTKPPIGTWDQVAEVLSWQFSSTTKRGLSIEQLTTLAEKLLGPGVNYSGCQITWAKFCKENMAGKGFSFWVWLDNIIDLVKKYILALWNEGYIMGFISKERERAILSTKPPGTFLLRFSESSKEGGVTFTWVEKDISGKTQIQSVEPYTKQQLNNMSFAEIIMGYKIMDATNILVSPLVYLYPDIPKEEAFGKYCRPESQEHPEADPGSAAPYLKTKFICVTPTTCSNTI

Compound	IC50 [1, 3]	IC50 [2, 4]	IC50 [1, 5]	IC50 [2, 6]
N#C[C@H]1CN(C(=O)[C@@H]2CC[C@@H]3/C=C\CC[C@H](NC(=O)c4cc5cc(C(F)(F)P(=O)(O)O)ccc5s4)C(=O)N32)C[C@@H]1c1ccccc1 (relative stereo) [Compound 27, ((2-(((3S,6S,10aR,Z)-3-(rel-trans)3-cyano-4-phenylpyrrolidine-1-carbonyl)-5-oxo-1,2,3,5,6,7,8,10a-octahydropyrrolo[1,2-a]azocin-6-yl)carbamoyl)benzo[b]thiophen-5-yl) difluoromethyl) phosphonic acid]	1000 to 10000 nM	≤ 300 nM		
N#C[C@@H]1CN(C(=O)[C@@H]2C[C@@H](O)[C@@H]3CCCCC[C@H](NC(=O)c4cc5cc(C(F)(F)P(=O)(O)O)ccc5s4)C(=O)N23)C[C@H]1c1ccccc1 (relative stereo) [Compound 76, ((2-(((1R,3S,6S, 11aS)-3-(rel-(trans)-3-cyano-4-phenylpyrrolidine-1-carbonyl)-1-hydroxy-5-oxodecahydro-1H-pyrrolo[1,2-a]azonin-6-yl)carbamoyl)benzo[b]thiophen-5-yl)difluoromethyl) phosphonic acid]	1000 to 10000 nM	≤ 300 nM		
N#C[C@@H]1CN(C(=O)[C@@H]2CC[C@@H]3CCCC[C@H](NC(=O)c4ccc5ccc(C(F)(F)P(=O)(O)O)cc5c4)C(=O)N32)C[C@H]1c1cc[nH]c(=O)c1 (relative stereo) [Compound 83, ((7-(((3S,6S,10aS)-3-(rel-(trans)-3-cyano-4-(2-oxo-1,2-dihydropyridin-4-yl)pyrrolidine-1-carbonyl)-5-oxodecahydropyrrolo [1,2-a]azocin-6-yl)carbamoyl)naphthalen-2-yl)difluoromethyl) phosphonic acid]	100 to 1000 nM	≤ 300 nM		
C[C@]1(NC(=O)c2cc3cc(C(F)(F)P(=O)(O)O)ccc3s2)CCCC[C@H]2CC[C@@H](C(=O)N3C[C@H](c4ccccc4)[C@@H](C#N)C3)N2C1=O (relative stereo) [Compound 84, ((2-(((3S,6S,10aS)-3-(rel-(trans)-3-cyano-4-phenylpyrrolidine-1-carbonyl)-6-methyl-5-oxodecahydropyrrolo [1,2-a]azocin-6-yl)carbamoyl)benzo[b]thiophen-5-yl)difluoromethyl) phosphonic acid]	100 to 1000 nM	300 to 3000 nM		
N#C[C@@H]1CN(C(=O)[C@@H]2CC[C@@H]3CCCC[C@H](NC(=O)c4cc5cc(C(F)(F)P(=O)(O)O)ccc5s4)C(=O)N32)C[C@H]1c1cc[nH]c(=O)c1 (relative stereo) [Compound 86, ((2-(((3S,6S,10aS)-3-(rel-(trans)-3-cyano-4-(2-oxo-1,2-dihydropyridin-4-yl)pyrrolidine-1-carbonyl)-5-oxodecahydropyrrolo [1,2-a]azocin-6-yl)carbamoyl)benzo[b]thiophen-5-yl)difluoromethyl) phosphonic acid]	100 to 1000 nM	≤ 300 nM		
N#C[C@H]1CN(C(=O)[C@@H]2CC[C@@H]3CCCC[C@H](NC(=O)c4cc5cc(C(F)(F)P(=O)(O)O)ccc5s4)C(=O)N32)C[C@H]1c1ccccc1 (relative stereo) [Compound 92, ((2-(((3S,6S,10aS)-3-(rel-(trans)-3-cyano-4-phenylpyrrolidine-1-carbonyl)-5-oxodecahydropyrrolo [1,2-a]azocin-6-yl)carbamoyl)benzo[b]thiophen-5-yl)difluoromethyl) phosphonic acid]	100 to 1000 nM	300 to 3000 nM		
N#C[C@@H]1CN(C(=O)[C@@H]2CC[C@@H]3CCCC[C@H](NC(=O)c4cc5cc(C(F)(F)P(=O)(O)O)ccc5s4)C(=O)N32)C[C@H]1c1ccccc1 (relative stereo) [Compound 95, ((2-(((3S,6S,10aS)-3-(rel-(trans)-3-cyano-4-phenylpyrrolidine-1-carbonyl)-5-oxodecahydropyrrolo [1,2-a]azocin-6-yl)carbamoyl)benzo[b]thiophen-5-yl)difluoromethyl) phosphonic acid]	100 to 1000 nM	≤ 300 nM		
N#C[C@@H]1CN(C(=O)[C@@H]2CC[C@@H]3CCC[C@H](NC(=O)c4cc5cc(C(F)(F)P(=O)(O)O)ccc5s4)C(=O)N32)C[C@H]1c1ccccc1 (relative stereo) [Compound 96, ((2-(((3S,6S,9aS)-3-(rel-(trans)-3-cyano-4-phenylpyrrolidine-1-carbonyl)-5-oxooctahydro-1H-pyrrolo [1,2-a]azepin-6-yl)carbamoyl)benzo[b]thiophen-5-yl)difluoromethyl) phosphonic acid]	100 to 1000 nM	≤ 300 nM		
N#C[C@@H]1CN(C(=O)[C@@H]2CC[C@@H]3CCCC[C@H](NC(=O)c4cc5cc(C(F)(F)P(=O)(O)O)ccc5s4)C(=O)N32)C[C@H]1C1CC1 (relative stereo) [Compound 102, ((2-(((3S,6S,10aS)-3-(rel-(trans)-3-cyano-4-cyclopropyl-pyrrolidine-1-carbonyl)-5-oxodecahydropyrrolo [1,2-a]azocin-6-yl)carbamoyl)benzo[b]thiophen-5-yl)difluoromethyl) phosphonic acid]	100 to 1000 nM	300 to 3000 nM		
N#C[C@H]1[C@H](c2ccccc2)CN(C(=O)[C@@H]2CC[C@@H]3CCCC[C@H](NC(=O)c4cc5cc(C(F)P(=O)(O)O)ccc5s4)C(=O)N32)C12CC2 (relative stereo) [Compound 229, ((2-(((3S,6S,10aS)-3-((rel-trans)-7-cyano-6-phenyl-4-azaspiro[2.4]heptane-4-carbonyl)-5-oxodecahydropyrrolo[1,2-a]azocin-6-yl)carbamoyl)benzo[b]thiophen-5-yl)fluoromethyl)phosphonic acid]			1000 to 10000 nM	≤ 300 nM
COc1ncccc1[C@@H]1CN(C(=O)[C@@H]2CC[C@@H]3CCCC[C@H](NC(=O)c4cc5cc(C(F)P(=O)(O)O)ccc5s4)C(=O)N32)C[C@H]1C#N (relative stereo) [Compound 230, ((2-(((3S,6S,10aS)-3-((rel-trans)-3-cyano-4-(2-methoxypyridin-3-yl)pyrrolidine-1-carbonyl)-5-oxodecahydropyrrolo[1,2-a]azocin-6-yl)carbamoyl)benzo[b]thiophen-5-yl)fluoromethyl)phosphonic acid]			1000 to 10000 nM	≤ 300 nM
COc1cccc([C@@H]2CN(C(=O)[C@@H]3CC[C@@H]4CCCC[C@H](NC(=O)c5cc6cc(C(F)P(=O)(O)O)ccc6s5)C(=O)N43)C3(CC3)[C@H]2C#N)c1 (relative stereo) [Compound 231, ((2-(((3S,6S,10aS)-3-((rel-trans)-7-cyano-6-(3-methoxyphenyl)-4-azaspiro[2.4]heptane-4-carbonyl)-5-oxodecahydropyrrolo[1,2-a]azocin-6-yl)carbamoyl)benzo[b]thiophen-5-yl)fluoromethyl)phosphonic acid]			1000 to 10000 nM	≤ 300 nM
N#C[C@@H]1CN(C(=O)[C@@H]2CCC[C@@H]3CCC[C@H](NC(=O)c4cc5cc(C(F)P(=O)(O)O)ccc5s4)C(=O)N32)C[C@H]1c1ccccc1 (relative stereo) [Compound 551, ((2-(((4S,7S,10aS)-4-((rel-trans)-3-cyano-4-phenylpyrrolidine-1-carbonyl)-6-oxodecahydropyrido[1,2-a]azepin-7-yl)carbamoyl)benzo[b]thiophen-5-yl)fluoromethyl)phosphonic acid]			1000 to 10000 nM	≤ 300 nM
